Source: patent US20240376094A2, “SELECTIVE BCL-XL PROTAC COMPOUNDS AND METHODS OF USE” (Les Laboratoires Servier, priority 2021, published 2024)

What was measured:
Type in all cases: cell-based
MOLT-4 cells [1] = experiment: MOLT-4 cell viability, MTT assay; conditions: Homo sapiens, MOLT-4, 48 h
Description: The MTT colorimetric assay is based on the mitochondrial reduction of tetrazolium salt by living cells. The viable cell number is proportional to the production of formazan salts, which can be read spectrophotometrically at 540 nm. The CTG luminescent assay (CellTiter GLO, Promega) is based on a reagent which lyses cells and measures total adenosine triphosphate (ATP) content. The viable cell number is proportional to the production of ATP.
MOLT-4 cells were purchased from ATCC and cultivated in RPMI 1640 supplemented with 10% heat inactivated fetal bovine serum, penicillin (100 IU/mi), streptomycin (100 μg/ml) and L-glutamine (2 mM). Cells were cultured at 37° C. in a humidified atmosphere containing 5% […].
For MTT assay, cells were seeded in 96 microwell plates (150 μL per well) and exposed to the compounds for 48 h (3.16 fold serially diluted; 9 concentrations each, triplicates). At the end of incubation time, 15 μL of MTT solution (5 mg/ml) were added per well and the cells were incubated for another 4 h. Then, 100 μL of 10% Sodium Dodecyl Sulfate (SDS)/HCl 10 mM were added per well and the plate was incubated overnight, before measurement of optical density at 540 nm.
IC50, were calculated using standard four-parametric curve fitting. IC50 is defined as the compound concentration at which the MTT or CTG signal is reduced to 50% of that measured for the control. Results shown in Table 14 represent the mean of at least 2 independent experiments.

MOLT-4 cells [2] = experiment: MOLT-4 cell viability, CTG assay; conditions: Homo sapiens, MOLT-4, 48 h
How it was run: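 Cells grown in RPMI 1640 with 10% FBS at 37° C, 5% CO2, then exposed to compounds for 48 h (11-point 5-fold dilution, triplicates). ATP measured by CellTiter-Glo luminescence; IC50 from four-parameter fit versus control, mean of ≥2 independent experiments.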

Bcl-xL = target: T1, Bcl-xL (Homo sapiens, UniProt Q07817); experiment: HCT116 Bcl-xL degradation, capillary-based immunoassay (WES); conditions: for remaining activity at 0.01 µM / remaining activity at 0.1 µM: HCT-116, 24 h, % of untreated cells; for remaining activity at 0.01 µM: HCT116, 10 nM; for remaining activity at 0.1 µM: HCT116, 100 nM; for DC50: HCT116, 24 h, 9-point serial dilution
T1 construct: Measured levels of Bcl-xL protein of HCT116 cells treated with the tested compounds; host or cells: HCT116
T1 sequence (Q07817 whole entry): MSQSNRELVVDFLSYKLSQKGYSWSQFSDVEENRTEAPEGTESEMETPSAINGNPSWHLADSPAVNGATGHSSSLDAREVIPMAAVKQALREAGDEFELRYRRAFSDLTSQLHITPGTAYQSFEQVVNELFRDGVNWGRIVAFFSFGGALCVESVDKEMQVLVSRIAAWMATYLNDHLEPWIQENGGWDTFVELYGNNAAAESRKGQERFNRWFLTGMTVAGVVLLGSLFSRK
How it was run: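 HCT116 cells treated 24 h with compound at 10/100 nM and/or 9-point dilution (quadruplicates), then lysed. Bcl-xL measured by capillary WES immunoassay, normalized to cofilin and expressed as % of untreated cells. DC50 from four-parameter curve fit.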

SMILES | IC50 (MOLT-4 cells [1]) [nM] | IC50 (MOLT-4 cells [2]) [nM] | remaining activity at 0.01 µM (Bcl-xL) [%] | remaining activity at 0.1 µM (Bcl-xL) [%] | DC50 (Bcl-xL) [nM]
Cc1ncsc1-c1ccc([C@H](C)NC(=O)C2C[C@@H](O)CN2C(=O)C(NC(=O)CCCCCN(C)CCOC23CC4(C)CC(C)(CC(Cn5ncc(-c6ccc(N7CCCc8c7nnc(Nc7nc9ccccc9s7)c8C)nc6C(=O)O)c5C)(C4)C2)C3)C(C)(C)C)cc1 (stereo in doubt) [Example 8, 6-[3-(1,3-benzothiazol-2-ylamino)-4-methyl-6,7-dihydro-5H-pyrido[2,3-c]pyridazin-8-yl]-3-[1-[[3-[2-[[6-[[(1S)-1-[(2S,4R)-4-hydroxy-2-[[(1S)-1-[4-(4-methylthiazol-5-yl)phenyl]ethyl]carbamoyl]pyrrolidine-1-carbonyl]-2,2-dimethyl-propyl]amino]-6-oxo-hexyl]-methyl-amino]ethoxy]-5,7-dimethyl-1-adamantyl]methyl]-5-methyl-pyrazol-4-yl]pyridine-2-carboxylic acid] | 6.56 | 34.3 | 54 | 37 | –
Cc1ncsc1-c1ccc(CNC(=O)[C@@H]2C[C@@H](O)CN2C(=O)[C@@H](NC(=O)CCCCCCC(=O)N2CCN(CC#Cc3ccc(OCCCc4sc(N5CCCc6c5nnc(Nc5nc7ccccc7s5)c6C)nc4C(=O)O)c(F)c3)CC2)C(C)(C)C)cc1 [Example 20, 2-[3-(1,3-benzothiazol-2-ylamino)-4-methyl-6,7-dihydro-5H-pyrido[2,3-c]pyridazin-8-yl]-5-[3-[2-fluoro-4-[3-[4-[8-[[(1S)-1-[(2S,4R)-4-hydroxy-2-[[4-(4-methylthiazol-5-yl)phenyl]methylcarbamoyl]pyrrolidine-1-carbonyl]-2,2-dimethyl-propyl]amino]-8-oxo-octanoyl]piperazin-1-yl]prop-1-ynyl]phenoxy]propyl]thiazole-4-carboxylic acid] | 4.49 | – | 51 | 31 | –
CNCC#Cc1ccc(OCCCc2sc(N(CCCc3cn(CCOCCOCCOCCNC(=O)COc4cccc5c4C(=O)N(C4CCC(=O)NC4=O)C5=O)nn3)c3cc(C)c(Nc4nc5ccccc5s4)nn3)nc2C(=O)O)c(F)c1 (centres unmarked) [Example 27, 2-[[6-(1,3-benzothiazol-2-ylamino)-5-methyl-pyridazin-3-yl]-[3-[1-[2-[2-[2-[2-[[2-[2-(2,6-dioxo-3-piperidyl)-1,3-dioxo-isoindolin-4-yl]oxyacetyl]amino]ethoxy]ethoxy]ethoxy]ethyl]triazol-4-yl]propyl]amino]-5-[3-[2-fluoro-4-[3-(methylamino)prop-1-ynyl]phenoxy]propyl]thiazole-4-carboxylic acid] | 669 | – | 60 | 49 | –
Cc1cc(N(CCCCCn2cc(COCCOCCOCC(=O)Nc3cccc4c3CN(C3CCC(=O)NC3=O)C4=O)nn2)c2ccc(-c3cnn(CC45CC6(C)CC(C)(C4)CC(OCCN(C)C)(C6)C5)c3C)c(C(=O)O)n2)nnc1Nc1nc2ccccc2s1 (centres unmarked) [Example 28, 6-[[6-(1,3-benzothiazol-2-ylamino)-5-methyl-pyridazin-3-yl]-[5-[4-[2-[2-[2-[[2-(2,6-dioxo-3-piperidyl)-1-oxo-isoindolin-4-yl]amino]-2-oxo-ethoxy]ethoxy]ethoxymethyl]triazol-1-yl]pentyl]amino]-3-[1-[[3-[2-(dimethylamino)ethoxy]-5,7-dimethyl-1-adamantyl]methyl]-5-methyl-pyrazol-4-yl]pyridine-2-carboxylic acid] | 8.63 | – | 81 | 46 | –
Cc1c(Nc2nc3ccccc3s2)nnc2c1CCCN2c1ccc(-c2cnn(CC34CC5(C)CC(C)(C3)CC(OCCN(C)CCCCCCCCCCCCOc3ccc6c(c3)C(=O)N(C3CCC(=O)NC3=O)C6=O)(C5)C4)c2C)c(C(=O)O)n1 (centres unmarked) [Example 140, 6-[3-(1,3-benzothiazol-2-ylamino)-4-methyl-6,7-dihydro-5H-pyrido[2,3-c]pyridazin-8-yl]-3-[1-[[3-[2-[12-[2-(2,6-dioxo-3-piperidyl)-1,3-dioxo-isoindolin-5-yl]oxydodecyl-methyl-amino]ethoxy]-5,7-dimethyl-1-adamantyl]methyl]-5-methyl-pyrazol-4-yl]pyridine-2-carboxylic acid] | 0.311 | – | – | – | 3.08
Cc1cc(N(CCCCCn2cc(CCCCCCCNc3cccc4c3C(=O)N(C3CCC(=O)NC3=O)C4=O)nn2)c2ccc(-c3cnn(CC45CC6(C)CC(C)(C4)CC(OCCN(C)C)(C6)C5)c3C)c(C(=O)O)n2)nnc1Nc1nc2ccccc2s1 (centres unmarked) [Example 150, 6-[[6-(1,3-benzothiazol-2-ylamino)-5-methyl-pyridazin-3-yl]-[5-[4-[7-[[2-(2,6-dioxo-3-piperidyl)-1,3-dioxo-isoindolin-4-yl]amino]heptyl]triazol-1-yl]pentyl]amino]-3-[1-[[3-[2-(dimethylamino)ethoxy]-5,7-dimethyl-1-adamantyl]methyl]-5-methyl-pyrazol-4-yl]pyridine-2-carboxylic acid] | 19.3 | – | – | – | 14.5

Second part, the compound after the results:

IC50 (MOLT-4 cells [1]) [nM] | IC50 (MOLT-4 cells [2]) [nM] | remaining activity at 0.01 µM (Bcl-xL) [%] | remaining activity at 0.1 µM (Bcl-xL) [%] | DC50 (Bcl-xL) [nM] | SMILES
16.4 | – | 46 | 16 | 7.49 | Cc1cc(N(CCCCCn2cc(COCCOCCNc3cccc4c3C(=O)N(C3CCC(=O)NC3=O)C4=O)nn2)c2ccc(-c3cnn(CC45CC6(C)CC(C)(C4)CC(OCCN(C)C)(C6)C5)c3C)c(C(=O)O)n2)nnc1Nc1nc2ccccc2s1 (centres unmarked) [Example 61, 6-[[6-(1,3-benzothiazol-2-ylamino)-5-methyl-pyridazin-3-yl]-[5-[4-[2-[2-[[2-(2,6-dioxo-3-piperidyl)-1,3-dioxo-isoindolin-4-yl]amino]ethoxy]ethoxymethyl]triazol-1-yl]pentyl]amino]-3-[1-[[3-[2-(dimethylamino)ethoxy]-5,7-dimethyl-1-adamantyl]methyl]-5-methyl-pyrazol-4-yl]pyridine-2-carboxylic acid]
24.1 | – | 47 | 7 | 13.6 | Cc1cc(N(CCCCCn2cc(COCCOCCOCCNc3cccc4c3C(=O)N(C3CCC(=O)NC3=O)C4=O)nn2)c2ccc(-c3cnn(C[C@@]45C[C@]6(C)C[C@](C)(C4)C[C@](OCCN(C)C)(C6)C5)c3C)c(C(=O)O)n2)nnc1Nc1nc2ccccc2s1 (some centres unmarked) [Example 62, 6-[[6-(1,3-benzothiazol-2-ylamino)-5-methyl-pyridazin-3-yl]-[5-[4-[2-[2-[2-[[2-(2,6-dioxo-3-piperidyl)-1,3-dioxo-isoindolin-4-yl]amino]ethoxy]ethoxy]ethoxymethyl]triazol-1-yl]pentyl]amino]-3-[1-[[3-[2-(dimethylamino)ethoxy]-5,7-dimethyl-1-adamantyl]methyl]-5-methyl-pyrazol-4-yl]pyridine-2-carboxylic acid]
86.4 | – | 61 | 39 | 53 | Cc1cc(N(CCCCCn2cc(COCCOCCOCCNC(=O)COc3cccc4c3C(=O)N(C3CCC(=O)NC3=O)C4=O)nn2)c2ccc(-c3cnn(CC45CC6(C)CC(C)(C4)CC(OCCN(C)C)(C6)C5)c3C)c(C(=O)O)n2)nnc1Nc1nc2ccccc2s1 (centres unmarked) [Example 63, 6-[[6-(1,3-benzothiazol-2-ylamino)-5-methyl-pyridazin-3-yl]-[5-[4-[2-[2-[2-[[2-[2-(2,6-dioxo-3-piperidyl)-1,3-dioxo-isoindolin-4-yl]oxyacetyl]amino]ethoxy]ethoxy]ethoxymethyl]triazol-1-yl]pentyl]amino]-3-[1-[[3-[2-(dimethylamino)ethoxy]-5,7-dimethyl-1-adamantyl]methyl]-5-methyl-pyrazol-4-yl]pyridine-2-carboxylic acid]
27.5 | – | 59 | 40 | – | Cc1cc(N(CCCCCn2cc(COCCOCCOCCOCCNc3cccc4c3C(=O)N(C3CCC(=O)NC3=O)C4=O)nn2)c2ccc(-c3cnn(CC45CC6(C)CC(C)(C4)CC(OCCN(C)C)(C6)C5)c3C)c(C(=O)O)n2)nnc1Nc1nc2ccccc2s1 (centres unmarked) [Example 153, 6-[[6-(1,3-benzothiazol-2-ylamino)-5-methyl-pyridazin-3-yl]-[5-[4-[2-[2-[2-[2-[[2-(2,6-dioxo-3-piperidyl)-1,3-dioxo-isoindolin-4-yl]amino]ethoxy]ethoxy]ethoxy]ethoxymethyl]triazol-1-yl]pentyl]amino]-3-[1-[[3-[2-(dimethylamino)ethoxy]-5,7-dimethyl-1-adamantyl]methyl]-5-methyl-pyrazol-4-yl]pyridine-2-carboxylic acid]
